Experimental data from US20030073618A1, “Compounds comprising disulfide-containing peptides and nitrogenous bases, and medical uses thereof” (priority 2001, published 2003).
Like-named read-outs stand apart in the source and are kept apart here. Marks after values point to notes of the source that are not given here.

Tests used:
hepatitis B virus (HBV) [1] = assay: Efficacy study in acute viral hepatitis B with severe course, 35 patients (Tables 50-53); assay type: in vivo, human
Text: (§1) State of patient upon completion of treatment.

hepatitis C virus (HCV) = assay: Efficacy study in chronic viral hepatitis C, 74 patients (Tables 54-55)
ATP-ase/helicase = ATP-ase/helicase activity in lysate of donor lymphocyte nuclei
[2] = system: ATP-ase/helicase (NS3 of hepatitis C virus)
hepatitis B virus (HBV) [3] = assay: Efficacy study in chronic viral hepatitis B, 62 patients (Tables 47-49); assay type: in vivo, human
hepatitis B virus (HBV) [4] = assay: as above; assay type: in vivo, human; conditions: month 1 (after treatment)
Text: as §1

[5] = month 2 (1 month after treatment)
[6] = month 4 (3 months after treatment)
[7] = 100 μg/ml, 100 pg M13 phage DNA
[8] = 100 μg/ml, 200 pg M13 phage DNA
[9] = compared with GSSG-I and GSSG-IMP
[10] = 100 μg/ml, 500 pg M13 phage DNA
[11] = 100 μg/ml, 800 pg M13 phage DNA

C[C@]12C=CC(=O)C=C1CC[C@@H]1[C@@H]2[C@@H](O)C[C@@]2(C)[C@H]1CC[C@]2(O)C(=O)CO [Prednisolone]
ALT in Severe HBV Infection (hepatitis B virus (HBV) [1]; Baseline (before treatment)): 1657.9 ± 96.5 U/L | Bilirubin in Severe HBV Infection (hepatitis B virus (HBV) [1]; Baseline (before treatment)): 313.9 ± 62.6 µmol/L | HbsAg in Severe HBV Infection (hepatitis B virus (HBV) [1]; Baseline (before treatment)): 189.7 ± 20.4 ng/mL | PCR (%) in Severe HBV Infection (hepatitis B virus (HBV) [1]; Baseline (before treatment)): 100% | ALT in Severe HBV Infection (hepatitis B virus (HBV) [1]; month 1 (after treatment)): **293.8 ± 18.8 U/L | Bilirubin in Severe HBV Infection (hepatitis B virus (HBV) [1]; month 1 (after treatment)): **86.9 ± 21.9 μmole/L | HbsAg in Severe HBV Infection (hepatitis B virus (HBV) [1]; month 1 (after treatment)): **97.8 ± 18.6 ng/mL | PCR (%) in Severe HBV Infection (hepatitis B virus (HBV) [1]; month 1 (after treatment)): **66.7% | ALT in Severe HBV Infection (hepatitis B virus (HBV) [1]; [5]): **145.4 ± 15.5 U/L | Bilirubin in Severe HBV Infection (hepatitis B virus (HBV) [1]; [5]): **31.4 ± 14.6 μmole/L | HbsAg in Severe HBV Infection (hepatitis B virus (HBV) [1]; [5]): **87.7 ± 12.7 ng/mL | PCR (%) in Severe HBV Infection (hepatitis B virus (HBV) [1]; [5]): **66.7% | ALT in Severe HBV Infection (hepatitis B virus (HBV) [1]; [6]): **65.3 ± 15.7 U/L | Bilirubin in Severe HBV Infection (hepatitis B virus (HBV) [1]; [6]): **26.84 ± 13.99 μmole/L | HbsAg in Severe HBV Infection (hepatitis B virus (HBV) [1]; [6]): **76.6 ± 15.4 ng/mL | PCR (%) in Severe HBV Infection (hepatitis B virus (HBV) [1]; [6]): **53.3%

Nc1ccn([C@H]2CC[C@@H](CO)O2)c(=O)n1 [Hivid]
ALT in Chronic HCV Infection (hepatitis C virus (HCV); Baseline (before treatment)): 187.5 ± 48.4 U/L | ALT in Chronic HCV Infection (hepatitis C virus (HCV); month 1 (after treatment)): **190 ± 71.1 U/L | ALT in Chronic HCV Infection (hepatitis C virus (HCV); [5]): **153 ± 25.3 U/L | ALT in Chronic HCV Infection (hepatitis C virus (HCV); [6]): **151 ± 25.2 U/L

N[C@@H](CCC(=O)N[C@@H](CSSC[C@H](NC(=O)CC[C@H](NP(=O)(O)OC[C@H]1O[C@@H](n2ccc(=O)[nH]c2=O)[C@H](O)[C@@H]1O)C(=O)O)C(=O)NCC(=O)[O-])C(=O)NCC(=O)[O-])C(=O)O.[Na+].[Na+] [GSSG-UMP]
Radioactive fraction, high-molecular (ATP-ase/helicase; 10 μg/ml, 5 pg M13 phage DNA): 16 ± 1/ | Radioactive fraction, low-molecular (ATP-ase/helicase; 10 μg/ml, 5 pg M13 phage DNA): 84 ± 5 | Radioactive fraction, high-molecular (ATP-ase/helicase; 10 μg/ml, 20 pg M13 phage DNA): 20 ± 2/ | Radioactive fraction, low-molecular (ATP-ase/helicase; 10 μg/ml, 20 pg M13 phage DNA): 80 ± 5 | Radioactive fraction, high-molecular (ATP-ase/helicase; 10 μg/ml, 50 pg M13 phage DNA): 41 ± 32/ | Radioactive fraction, low-molecular (ATP-ase/helicase; 10 μg/ml, 50 pg M13 phage DNA): 59 ± 5 | Radioactive fraction, high-molecular (ATP-ase/helicase; 10 μg/ml, 100 pg M13 phage DNA): 72 ± 4.5/ | Radioactive fraction, low-molecular (ATP-ase/helicase; 10 μg/ml, 100 pg M13 phage DNA): 28 ± 2.5 | Radioactive fraction, high-molecular (ATP-ase/helicase; 10 μg/ml, 200 pg M13 phage DNA): 92 ± 7/ | Radioactive fraction, low-molecular (ATP-ase/helicase; 10 μg/ml, 200 pg M13 phage DNA): 8 ± 2 | Radioactive fraction, high-molecular (ATP-ase/helicase; 50 μg/ml, 5 pg M13 phage DNA): 32.5 ± 1.5*/ | Radioactive fraction, low-molecular (ATP-ase/helicase; 50 μg/ml, 5 pg M13 phage DNA): 67.5 ± 5.5 | Radioactive fraction, high-molecular (ATP-ase/helicase; 50 μg/ml, 20 pg M13 phage DNA): 37.5 ± 2.5*/ | Radioactive fraction, low-molecular (ATP-ase/helicase; 50 μg/ml, 20 pg M13 phage DNA): 62.5 ± 5.5 | Radioactive fraction, high-molecular (ATP-ase/helicase; 50 μg/ml, 50 pg M13 phage DNA): 59 ± 5*/ | Radioactive fraction, low-molecular (ATP-ase/helicase; 50 μg/ml, 50 pg M13 phage DNA): 41 ± 4 | Radioactive fraction, high-molecular (ATP-ase/helicase; 50 μg/ml, 100 pg M13 phage DNA): 80 ± 6/ | Radioactive fraction, low-molecular (ATP-ase/helicase; 50 μg/ml, 100 pg M13 phage DNA): 20 ± 3.5 | Radioactive fraction, high-molecular (ATP-ase/helicase; 50 μg/ml, 200 pg M13 phage DNA): 90.5 ± 6/ | Radioactive fraction, low-molecular (ATP-ase/helicase; 50 μg/ml, 200 pg M13 phage DNA): 9.5 ± 1.5 | Radioactive fraction, high-molecular (ATP-ase/helicase; 100 μg/ml, 5 pg M13 phage DNA): 42 ± 3*/ | Radioactive fraction, low-molecular (ATP-ase/helicase; 100 μg/ml, 5 pg M13 phage DNA): 58 ± 4 | Radioactive fraction, high-molecular (ATP-ase/helicase; 100 μg/ml, 20 pg M13 phage DNA): 49.5 ± 4*/ | Radioactive fraction, low-molecular (ATP-ase/helicase; 100 μg/ml, 20 pg M13 phage DNA): 50.5 ± 5 | Radioactive fraction, high-molecular (ATP-ase/helicase; 100 μg/ml, 50 pg M13 phage DNA): 67 ± 5*/ | Radioactive fraction, low-molecular (ATP-ase/helicase; 100 μg/ml, 50 pg M13 phage DNA): 33 ± 3.5 | Radioactive fraction, high-molecular (ATP-ase/helicase; [7]): 84 ± 6.5/ | Radioactive fraction, low-molecular (ATP-ase/helicase; [7]): 16 ± 1.5 | Radioactive fraction, high-molecular (ATP-ase/helicase; [8]): 92.5 ± 8/ | Radioactive fraction, low-molecular (ATP-ase/helicase; [8]): 7.5 ± 2 | Relative inhibition of ATP-ase/helicase activity (ATP-ase/helicase; [9]): inhibits ATP-ase/helicase activity most of all | Radioactive fraction, high-molecular ([2]; 10 μg/ml, 20 pg M13 phage DNA): 16 ± 1/ | Radioactive fraction, low-molecular ([2]; 10 μg/ml, 20 pg M13 phage DNA): 84 ± 5 | Radioactive fraction, high-molecular ([2]; 10 μg/ml, 50 pg M13 phage DNA): 17.5 ± 1.5/ | Radioactive fraction, low-molecular ([2]; 10 μg/ml, 50 pg M13 phage DNA): 82.5 ± 8.5 | Radioactive fraction, high-molecular ([2]; 10 μg/ml, 200 pg M13 phage DNA): 45 ± 4/ | Radioactive fraction, low-molecular ([2]; 10 μg/ml, 200 pg M13 phage DNA): 55 ± 5 | Radioactive fraction, high-molecular ([2]; 10 μg/ml, 500 pg M13 phage DNA): 73.5 ± 5.5/ | Radioactive fraction, low-molecular ([2]; 10 μg/ml, 500 pg M13 phage DNA): 27.5 ± 1.5 | Radioactive fraction, high-molecular ([2]; 10 μg/ml, 800 pg M13 phage DNA): 92.0 ± 5/ | Radioactive fraction, low-molecular ([2]; 10 μg/ml, 800 pg M13 phage DNA): 8 ± 1 | Radioactive fraction, high-molecular ([2]; 50 μg/ml, 20 pg M13 phage DNA): 32 ± 2.5*/ | Radioactive fraction, low-molecular ([2]; 50 μg/ml, 20 pg M13 phage DNA): 78 ± 7 | Radioactive fraction, high-molecular ([2]; 50 μg/ml, 50 pg M13 phage DNA): 34 ± 3*/ | Radioactive fraction, low-molecular ([2]; 50 μg/ml, 50 pg M13 phage DNA): 66 ± 7 | Radioactive fraction, high-molecular ([2]; 50 μg/ml, 200 pg M13 phage DNA): 51 ± 4/ | Radioactive fraction, low-molecular ([2]; 50 μg/ml, 200 pg M13 phage DNA): 49 ± 5 | Radioactive fraction, high-molecular ([2]; 50 μg/ml, 500 pg M13 phage DNA): 74 ± 5/ | Radioactive fraction, low-molecular ([2]; 50 μg/ml, 500 pg M13 phage DNA): 26 ± 2 | Radioactive fraction, high-molecular ([2]; 50 μg/ml, 800 pg M13 phage DNA): 92.5 ± 6.5/ | Radioactive fraction, low-molecular ([2]; 50 μg/ml, 800 pg M13 phage DNA): 7.5 ± 1 | Radioactive fraction, high-molecular ([2]; 100 μg/ml, 20 pg M13 phage DNA): 36 ± 2*/ | Radioactive fraction, low-molecular ([2]; 100 μg/ml, 20 pg M13 phage DNA): 64 ± 5 | Radioactive fraction, high-molecular ([2]; 100 μg/ml, 50 pg M13 phage DNA): 41 ± 4*/ | Radioactive fraction, low-molecular ([2]; 100 μg/ml, 50 pg M13 phage DNA): 59 ± 6 | Radioactive fraction, high-molecular [2, 8]: 57.5 ± 7.5*/ | Radioactive fraction, low-molecular [2, 8]: 42.5 ± 3.5 | Radioactive fraction, high-molecular [2, 10]: 75.5 ± 6.5/ | Radioactive fraction, low-molecular [2, 10]: 24.5 ± 3.5 | Radioactive fraction, high-molecular [2, 11]: 92.5 ± 6.5/ | Radioactive fraction, low-molecular [2, 11]: 7.5 ± 1 | Relative inhibition of ATP-ase/helicase activity [2, 9]: maximal inhibitory effect

CC(=O)OCC(CCn1cnc2cnc(N)nc21)COC(C)=O [Famvir]
ALT in Chronic HBV Infection (hepatitis B virus (HBV) [3]; Baseline (before treatment)): 165.7 ± 13.8 U/L | HbsAg in Chronic HBV Infection (hepatitis B virus (HBV) [3]; Baseline (before treatment)): 157.8 ± 8.84 ng/mL | PCR (%) in Chronic HBV Infection (hepatitis B virus (HBV) [3]; Baseline (before treatment)): 100% | ALT in Chronic HBV Infection (hepatitis B virus (HBV) [3]; [5]): **75.9 ± 9.6 U/L | HbsAg in Chronic HBV Infection (hepatitis B virus (HBV) [3]; [5]): **153.5 ± 10.14 ng/mL | PCR (%) in Chronic HBV Infection (hepatitis B virus (HBV) [3]; [5]): **60.0% | ALT in Chronic HBV Infection (hepatitis B virus (HBV) [3]; [6]): **77.9 ± 10.2 U/L | HbsAg in Chronic HBV Infection (hepatitis B virus (HBV) [3]; [6]): **132.5 ± 43.76 ng/mL | PCR (%) in Chronic HBV Infection (hepatitis B virus (HBV) [3]; [6]): **20.0% | ALT in Chronic HBV Infection (hepatitis B virus (HBV) [4]): **70.2 ± 9.1 U/L | HbsAg in Chronic HBV Infection (hepatitis B virus (HBV) [4]): **150.5 ± 10.43 ng/mL | PCR (%) in Chronic HBV Infection (hepatitis B virus (HBV) [4]): **50.0* %
